Test results reported in ChEMBL document CHEMBL1201862, “PubChem BioAssay data set” (2004).
Several values for one entry are separate records, joined by “and”; a condition that tells them apart may be missing. Identical values can stand only once.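 Five concentrations, 48 hours, 96-well plates. Abbreviation: GI50, concentration required for 50% inhibition of growth.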 Activity calls are given as the source filed them. No stated cut-off is given here; in the data, active = GI50 up to about 1.1 µM and inactive = higher.

Legend:
Assay in all cases: growth of human tumour cells (NCI), 48 h
COLO 205 = tested on: COLO 205
BT-549 = tested on: BT-549
HOP-62 = tested on: HOP-62
UO-31 = tested on: UO-31
SNB-75 = tested on: SNB-75
HCT-15 = tested on: HCT-15
Malme-3M = tested on: Malme-3M
LOX IMVI = tested on: LOX IMVI
NCI-H23 = tested on: NCI-H23
RPMI-8226 = tested on: RPMI-8226
HOP-92 = tested on: HOP-92
K562 = tested on: K562
T47D = tested on: T47D
U-251 = tested on: U-251
HT-29 = tested on: HT-29
MOLT-4 = tested on: MOLT-4
OVCAR-8 = tested on: OVCAR-8
OVCAR-4 = tested on: OVCAR-4
HL-60 = tested on: HL-60

Row | Structure (SMILES) | GI50 (COLO 205) | GI50 (BT-549) | GI50 (HOP-62) | GI50 (UO-31) | GI50 (SNB-75) | GI50 (HCT-15) [µM] | GI50 (Malme-3M) | GI50 (LOX IMVI) | GI50 (NCI-H23) | GI50 (RPMI-8226) | GI50 (HOP-92) | GI50 (K562) | GI50 (T47D) | GI50 (U-251) | GI50 (HT-29) | GI50 (MOLT-4) | GI50 (OVCAR-8) | GI50 (OVCAR-4) | GI50 (HL-60)
1 | O=C(O)c1nnsc1COCc1ccccc1 | > 100 µM (inactive) | > 100 µM (inactive) | > 100 µM (inactive) | > 100 µM (inactive) | > 100 µM (inactive) | > 100 | > 100 µM (inactive) | > 100 µM (inactive) | > 100 µM (inactive) | > 100 µM (inactive) | > 100 µM (inactive) | > 100 µM (inactive) | > 100 µM (inactive) | > 100 µM (inactive) | > 100 µM (inactive) | > 100 µM (inactive) | > 100 µM (inactive) | > 100 µM (inactive) | –
2 | CCC(C)C1=C(O)[N+]2([O-])Oc3ccc(-c4c(O)c(O)c(-c5ccc(OC(C)=O)cc5)c(OC(C)=O)c4OC(C)=O)cc3OC2(C(C)CC)C(=O)N1O (configuration not stated) | > 50 µM (inactive) | 45.6 µM (inactive) | > 50 µM (inactive) | > 50 µM (inactive) | – | > 50 | 34.6 µM (inactive) and 45.2 µM (inactive) | 38.3 µM (inactive) and 37.2 µM (inactive) | > 50 µM (inactive) | > 50 µM (inactive) and 33.8 µM (inactive) | 8.17 µM (inactive) and 10 µM (inactive) | 28.8 µM (inactive) and 15.4 µM (inactive) | 42.7 µM (inactive) | > 50 µM (inactive) | > 50 µM (inactive) | 23.7 µM (inactive) and 14.4 µM (inactive) | > 50 µM (inactive) | 12.9 µM (inactive) and 14.9 µM (inactive) | 24 µM (inactive) and 27.4 µM (inactive)
3 | COc1ccc(CCNC(=O)Cc2cc(OC)c(OC)cc2CO)cc1OC | > 100 µM (inactive) | > 100 µM (inactive) | > 100 µM (inactive) | > 100 µM (inactive) | > 100 µM (inactive) | > 100 | – | > 100 µM (inactive) | > 100 µM (inactive) | > 100 µM (inactive) | > 100 µM (inactive) | > 100 µM (inactive) | > 100 µM (inactive) | > 100 µM (inactive) | > 100 µM (inactive) | > 100 µM (inactive) | > 100 µM (inactive) | > 100 µM (inactive) | > 100 µM (inactive)
4 | COc1ccc(-c2coc3c4c(ccc3c2=O)OCO4)cc1OC | > 100 µM (inactive) | 14.9 µM (inactive) | 36.7 µM (inactive) | 99.8 µM (inactive) | 38.2 µM (inactive) | 18 | – | 98.2 µM (inactive) | 25 µM (inactive) | > 100 µM (inactive) | 36.3 µM (inactive) | 7.6 µM (inactive) | > 100 µM (inactive) | 37.2 µM (inactive) | > 100 µM (inactive) | > 100 µM (inactive) | 38 µM (inactive) | 22.5 µM (inactive) | 14.3 µM (inactive)
5 | COc1cc(C2SCC(=O)N2c2ccc(Cl)cc2)cc(I)c1O (configuration not stated) | 2.64 µM (inactive) | 48.8 µM (inactive) | – | > 100 µM (inactive) | > 100 µM (inactive) | – | > 100 µM (inactive) | – | 25.5 µM (inactive) | 5.85 µM (inactive) | 57 µM (inactive) | 0.501 µM (active) | 5.45 µM (inactive) | > 100 µM (inactive) | > 100 µM (inactive) | 21.9 µM (inactive) | > 100 µM (inactive) | 3.37 µM (inactive) | 15.7 µM (inactive)
6 | COc1cccc2c1C(=O)c1ccc3cc(CCl)cc(O)c3c1C2=O | 0.203 µM (active) | 0.305 µM (active) | 0.483 µM (active) | 0.336 µM (active) | 0.94 µM (active) | 0.254 | 0.188 µM (active) | 0.158 µM (active) | 0.402 µM (active) | 0.182 µM (active) | 0.394 µM (active) | 0.29 µM (active) | 1.2 µM (inactive) | 0.366 µM (active) | 0.207 µM (active) | 0.238 µM (active) | 0.228 µM (active) | – | 0.21 µM (active)
7 | C/C(=N\NC(=S)N1CCCCCC1)c1cccc2cccnc12 | 0.459 µM (active) | 16 µM (inactive) | 1.15 µM (inactive) | 1.94 µM (inactive) | 23 µM (inactive) | 0.287 | 3.17 µM (inactive) | 0.767 µM (active) | 1.32 µM (inactive) | 0.109 µM (active) | 11.7 µM (inactive) | 0.131 µM (active) | 0.966 µM (active) | 0.839 µM (active) | 1.4 µM (inactive) | 0.134 µM (active) | 1.38 µM (inactive) | – | 1.25 µM (inactive)
8 | N#Cc1ccc(C(O)C(F)(F)c2nc3ccccc3o2)cc1 (configuration not stated) | > 100 µM (inactive) | 71.4 µM (inactive) | > 100 µM (inactive) | 30.3 µM (inactive) | > 100 µM (inactive) | > 100 | – | 42.9 µM (inactive) | > 100 µM (inactive) | 31.2 µM (inactive) | 53.3 µM (inactive) | 18.2 µM (inactive) | 37.2 µM (inactive) | > 100 µM (inactive) | 81.3 µM (inactive) | 29.2 µM (inactive) | 98.6 µM (inactive) | 95.5 µM (inactive) | 43.6 µM (inactive)
9 | COC(=O)c1c(C(=O)OC)c2c3ccccc3n(C)c2c2c1c1ccccc1n2C | > 100 µM (inactive) | > 100 µM (inactive) | 19.3 µM (inactive) | 16.2 µM (inactive) | 25.8 µM (inactive) | > 100 | 89.9 µM (inactive) | > 100 µM (inactive) | > 100 µM (inactive) | > 100 µM (inactive) | > 100 µM (inactive) | > 100 µM (inactive) | > 100 µM (inactive) | 28.1 µM (inactive) | > 100 µM (inactive) | > 100 µM (inactive) | > 100 µM (inactive) | 31.4 µM (inactive) | –
10 | O=C(NN1C(=O)C(Cl)C1c1ccc(Cl)cc1)c1c(Cl)c(Cl)c(Cl)c(Cl)c1-c1nc2ccccc2[nH]1 (configuration not stated) | 18.3 µM (inactive) | 24.4 µM (inactive) | 40.2 µM (inactive) | 22.6 µM (inactive) | 19.2 µM (inactive) | 17.6 | 21.1 µM (inactive) | 16.5 µM (inactive) | 21.5 µM (inactive) | – | 13.5 µM (inactive) | 20.1 µM (inactive) | < 0.01 µM (active) | – | 25.2 µM (inactive) | 7.33 µM (inactive) | 17.8 µM (inactive) | – | 25.4 µM (inactive)
11 | O=C1C(Cl)C2(CC(/C=C/c3ccccc3O)=NN2c2cccc(S(=O)(=O)O)c2)N1c1nc2ccccc2s1 (configuration not stated) | 18.9 µM (inactive) | 18.1 µM (inactive) | – | 13.1 µM (inactive) | 38.8 µM (inactive) | 18.2 | 13.8 µM (inactive) | 9.62 µM (inactive) | 15.6 µM (inactive) | 12.1 µM (inactive) | 19.7 µM (inactive) | 20.2 µM (inactive) | 17.4 µM (inactive) | 16.7 µM (inactive) | 18.6 µM (inactive) | 17.1 µM (inactive) | 24.3 µM (inactive) | 13.4 µM (inactive) | 3.54 µM (inactive)
12 | COc1ccc(C(=C2C(=O)OC(=O)C2=C(C)C)c2ccc(OC)cc2)cc1 | > 100 µM (inactive) | 70.5 µM (inactive) | 45.8 µM (inactive) | > 100 µM (inactive) | > 100 µM (inactive) | 51.9 | 92 µM (inactive) | 34.4 µM (inactive) | > 100 µM (inactive) | 28.8 µM (inactive) | > 100 µM (inactive) | – | > 100 µM (inactive) | 33.4 µM (inactive) | 48 µM (inactive) | 57.4 µM (inactive) | 47.4 µM (inactive) | 29.6 µM (inactive) | 31.2 µM (inactive)
13 | COC(=O)CC(C#N)(OP1(=O)OC(c2ccccc2)C(C)N1C)c1ccccc1 (configuration not stated) | 34.5 µM (inactive) | 36.2 µM (inactive) | 30.7 µM (inactive) | 12.1 µM (inactive) | 43.4 µM (inactive) | 28.6 | 41.8 µM (inactive) | 21 µM (inactive) | 31.5 µM (inactive) | 25.1 µM (inactive) | 32.3 µM (inactive) | 24.3 µM (inactive) | 28.1 µM (inactive) | 23.1 µM (inactive) | 23.8 µM (inactive) | 25.5 µM (inactive) | 22.8 µM (inactive) | – | 23.8 µM (inactive)
14 | CC1=NN(c2nc(N)nc(/C(C#N)=C/c3cccn3-c3cc(Cl)cc(Cl)c3)n2)C(C)(C)C1 | > 100 µM (inactive) | > 100 µM (inactive) | 10.1 µM (inactive) | > 100 µM (inactive) | 17 µM (inactive) | > 100 | > 100 µM (inactive) | 83 µM (inactive) | > 100 µM (inactive) | > 100 µM (inactive) | > 100 µM (inactive) | – | > 100 µM (inactive) | 7.82 µM (inactive) | > 100 µM (inactive) | – | 12 µM (inactive) | > 100 µM (inactive) | 14.8 µM (inactive)
15 | COC(=O)C(=O)C(C(=O)C(=O)Nc1ccccc1OC)c1nc2ccc([N+](=O)[O-])cc2nc1O (configuration not stated) | – | > 100 µM (inactive) | > 100 µM (inactive) | 45.3 µM (inactive) | > 100 µM (inactive) | 41.4 | 83 µM (inactive) | 96.2 µM (inactive) | – | > 100 µM (inactive) | > 100 µM (inactive) | > 100 µM (inactive) | > 100 µM (inactive) | > 100 µM (inactive) | > 100 µM (inactive) | > 100 µM (inactive) | > 100 µM (inactive) | 83.8 µM (inactive) | > 100 µM (inactive)
16 | COc1cccc(-c2nc(N)c(C#N)c3c2CCS(=O)(=O)c2ccc(C)cc2-3)c1 | 8.05 µM (inactive) | 52 µM (inactive) | 30.2 µM (inactive) | 40.3 µM (inactive) | 10.4 µM (inactive) | 7.87 | 18.2 µM (inactive) | 31.4 µM (inactive) | 43.1 µM (inactive) | – | 68.7 µM (inactive) | 3.21 µM (inactive) | 43.2 µM (inactive) | 36.6 µM (inactive) | 9.68 µM (inactive) | 22.9 µM (inactive) | 26.1 µM (inactive) | > 100 µM (inactive) | 5.08 µM (inactive)
